This is an account of results in a melting point compilation (Tetko et al.; mined from patent text by program, amines drawn as free bases though some values may be those of a salt).

One may read the melting point as the temperature of the solid-liquid transition. Turning to `O=C(O)CCCc1nc(-c2cccnc2)c(-c2ccccc2)s1`, the melting point lay within 141 to 142 °C. The same measure for `CC1(C)C(=O)Nc2ccc(-c3cccc(C#N)c3F)cc21`: 231 to 232 °C. `CN(C)CCCNC(=O)c1ccc(-c2ccc3nnn(Cc4ccc5ncccc5c4)c3n2)cc1` came in with a melting point of 132 to 135 °C. The result for `Cc1[nH]nc(Oc2ccc([N+](=O)[O-])cc2C(F)(F)F)c1C` reads 97 to 99 °C. The same measure for `NCc1cccc(OCCC2Oc3ccccc3N(Cc3cccc(Cl)c3)C2=O)c1` (centres undefined): 124 to 129 °C; for `CC(C)NCCCCCCOc1ccc(O)cc1`: 78 to 86 °C. The same measure for `CCn1cc(CN(C(=O)C2CCc3cc(OC)ccc32)c2ccc(C(C)C)cc2)cn1` (centres undefined): 115 to 116 °C; for `Cc1nc2c(-c3cccc(N4CCN(C)CC4)c3)cnn2c(N)c1-c1ccc(F)cc1`: 204 to 206 °C; for `CCC(NC(C)=O)C(=O)O` (centres undefined): 128 to 130 °C.

For `Cn1ccc2cc(N3Cc4ccc(OCC(F)(F)F)cc4C3=O)ccc21`, the melting point was 182 to 188 °C.

`CCOC(=O)C1=C(COCCCCO)NC(C)=C(C(=O)OC)C1c1cccc(Cl)c1Cl` (centres undefined): the melting point fell in the range of 103 to 104 °C. `CC(C)(C)NCC(O)c1cc(Br)c(N)c([N+](=O)[O-])c1` (centres undefined): the melting point fell in the range of 151 to 152 °C. As for `O=C(CN1C(=O)c2ccccc2S1(=O)=O)OCCO`, the melting point was 125 to 126 °C. The same measure for `CCc1c(-c2ccncc2)[nH]c(-c2ccncc2)c1C(C)=O`: 241 to 243 °C; for `COc1ccc(CNc2nc(CCC(=O)O)nc3sc4ccccc4c23)cc1Cl`: 218 °C; for `CN1CC=C(c2cnn3c(-c4cccc(NC(=O)c5cccc(C(F)(F)F)c5)c4)ccnc23)CC1`: 163 to 165 °C. The result for `CCCCCCOc1ccc(-c2ccccc2)cc1` reads 61 to 62 °C; that for `O=C(O)c1ccccc1NCCCN1c2ccccc2CCc2ccc(Cl)cc21`, 176 to 178 °C. The result for `O=C(NC(Cc1ccc(OCc2ccc(F)cc2)cc1)C(=O)O)c1cc2cc(-c3ccc(Cl)cc3)ccc2s1` (centres undefined) reads 189 to 190 °C; that for `COCC(=O)Nc1ccc2ncnc(Nc3cccc(I)c3)c2c1`, 159 to 163 °C. `COc1ccc(CN2CCC(c3cn(Cc4cccs4)c4cc(F)ccc34)CC2)cc1C(=O)O` had a melting point of 245 to 246 °C. For `COC(=S)C(=Cc1ccccc1)N1CC(N2C(=O)c3ccccc3C2=O)C1=O` (centres undefined), the melting point fell in the range of 170 to 171 °C.

`COc1ccc(C2=NC(C)(C)C(c3cccs3)C2)cc1` (centres undefined) showed a melting point of 84 °C. In the case of `CSc1nc(F)cc(NN)n1`, the melting point lay within 153 to 154 °C. The same measure for `Cc1cc(CCCCCOc2c(C)cc(-c3nnn(CCO)n3)cc2C)on1`: 69 to 70 °C; for `O=C1CCC(c2ccc3[nH]c(-c4ccccc4)cc3c2)=NN1`: 270 to 275 °C. The result for `O=Cc1ccc2c(c1)Sc1ccccc1CC2` reads 55.5 to 56.5 °C; that for `CCOCn1c(-c2cc(F)cc(F)c2)c(C#N)c(Br)c1C(F)(F)F`, 74 to 75 °C.

Regarding `CCc1noc(NS(=O)(=O)c2ccccc2)c1Br`, the melting point lay within 90 to 93 °C.

Consider `O=C1NCc2nc3ccc(Cl)cc3c(=O)n2-c2ccccc21`, for which the melting point is 286 to 288 °C.

`C[C@H]1N(C(=O)c2ccc(C(F)(F)F)cc2)CC(O)O[C@@]1(Cn1cncn1)c1ccc(Cl)cc1Cl` (relative stereo) gave a melting point of 199 to 200 °C. The result for `CON=C(c1ccccc1)c1ccccc1N` reads 138 °C. The compound `Cc1oc(-c2cccs2)nc1COc1ccc(CON=C(CCC(=O)O)c2ccccc2)cc1` registered a melting point of 142 to 143 °C. `COC(=O)CN(C)c1nc(-c2ccc(Cl)c(Cl)c2)cs1` showed a melting point of 88 to 89 °C. The same measure for `CCCC[C@H](NC(=O)[C@H](CC(C)C)NC(=O)c1ccc(F)c(C(F)(F)F)c1)C(=O)CSCc1ccco1`: 112 to 114 °C; for `CN(C)CCN1c2ccccc2C(=O)N(C)c2cccnc21`: 109 to 110 °C; for `NC(=O)COCC(N)=S`: 164 to 168 °C. The result for `CCN(CC)C(=O)[C@H]1C[C@H](C(=O)OC(C)(C)C)N(C(=O)CNC(=O)Nc2cccc(C(=O)O)c2)[C@@H]1c1ccccc1F` (racemic) reads 150 °C; that for `Cc1ccc(C(=O)C(C#N)C#N)cc1`, 163 °C; that for `CC(C)c1nc(-c2ccc(S(C)(=O)=O)cc2)c(-c2ccc(F)cc2)[nH]1`, 214 to 215 °C. The same measure for `O=[N+]([O-])c1ccc(C=[N+]([O-])c2cccc(CO)c2)o1`: 187 to 188 °C. The compound `CN(C)C(=O)C(CCN1CCC(Nc2nc3cncnc3n2Cc2ccccn2)CC1)(c1ccccc1)c1ccccc1` displayed a melting point of 192 °C. In the case of `O=C(O)COCCCCN(c1cnc(-c2ccccc2)c(-c2ccccc2)n1)C1CCCCC1`, the melting point lay in the range of 130 to 131 °C. As to `CCOC(=O)COc1cccc(/C=C/c2nc3ccccc3s2)c1`, the melting point was in the range of 150 to 151 °C. The same measure for `CCn1ccc(=O)c2cnc(-c3ccncc3)nc21`: 200 to 202 °C; for `COC(=O)Cc1c(C)ncnc1Oc1cccc(-c2ccccc2)c1`: 113 to 115 °C; for `FC(F)(F)Oc1ccc(C=Cc2nc[nH]n2)cc1`: 125 to 127 °C. The same measure for `N#Cc1nc(NC2CCCCC2)c2ncn(CCn3ccnc3)c2n1`: 115 to 117 °C; for `CN(C)C(=O)COc1ccc2c(c1)C[C@@H](NC[C@H](O)c1ccc(O)cc1)CC2`: 169 to 172 °C; for `COc1ccc(C2=NN(Cc3ccc(C(=O)O)cc3)C(=O)[C@H]3CC=CC[C@@H]23)cc1OC` (relative stereo): 192 to 193 °C. Consider `O=Cc1ccc(C(=O)Nc2ccc(C(F)(F)F)cc2)cc1`, for which the melting point stood at 173 °C. In turn, `O=C(Nc1ccccc1)NC1CCN(Cc2ccccc2)CC1` showed a melting point of 161 to 162 °C.

With `CN(C)CCC(=O)Nc1cccc([N+](=O)[O-])c1`, the melting point is 80 to 81 °C. `Cn1ccnc1Sc1ccc(Nc2c(C#N)cnc3cc(F)ccc23)cc1Cl` showed a melting point of 268 to 272 °C. The same measure for `CN1C(=O)C(C(=O)Nc2ccc(Oc3ncc(Cl)cc3Cl)cc2)C(=O)N(C)C1=O`: 234 to 235 °C; for `N#Cc1ccccc1Cc1c(-c2ccc(OC(F)F)c(OC3CC3)c2)[nH]c2cn[nH]c(=O)c12`: above 300 °C; for `CCCCCCCCCCCCCCCC(=O)NC(C)CO` (centres undefined): 75 to 76 °C. The same measure for `CC(=O)Nc1ccccc1Oc1cc2c(=O)ccoc2cc1NS(C)(=O)=O`: 130 to 132 °C; for `CCCCC1=C(C#N)C(c2cccc3nonc23)c2c[nH]nc2N1` (centres undefined): 200 °C; for `CC(=O)N(CCN1CCOCC1)C(C)C1(c2ccc(Cl)c(Cl)c2)CCC1` (centres undefined): 121 to 122 °C. `CCCCCCC1=C(Br)C(O)(CO)NC1=O` (centres undefined) had a melting point of 134 to 135 °C. As to `CC(=Cc1ccsc1)N(O)C(N)=O`, the melting point is 165 to 167 °C. `N#Cc1[nH]c2ccc(Cl)cc2c1-c1c(F)cccc1F` displayed a melting point of 199 to 200 °C. The same measure for `CCCCSc1cc(C(=O)OC)cc(S(N)(=O)=O)c1Oc1ccccc1`: 122 to 123 °C.
